In ChEMBL document CHEMBL5260828, “Amphiphilic glycoconjugates as potential anti-cancer chemotherapeutics” (Eur J Med Chem, 2018):
Values after ≈ are worked out from the molar mass of the structure shown. One block for each molecule: values may come before it.

How the values were obtained:
HCT-116 [1] = assay: Cytotoxicity against human HCT-116 cells assessed as cell growth inhibition incubated for 72 hrs by celltiter 96 aqueous cell proliferation assay; assay type: functional, cell-based; details: HCT-116, 72 h
K562 = assay: Cytotoxicity against human K562 cells; assay type: functional, cell-based
PK9 = assay: Cytotoxicity against human PK9 cells assessed as inhibition of cell growth incubated for 72 hrs by CellTiter 96 aqueous one solution assay; assay type: functional, cell-based; details: PK9, 72 h
MIA PaCa-2 [2] = assay: Cytotoxicity against human MIA PaCa-2 cells assessed as inhibition of cell growth incubated for 72 hrs by CellTiter 96 aqueous one solution assay; assay type: functional, cell-based; details: MIA PaCa-2, 72 h
HL-60 = assay: Cytotoxicity against human HL-60 cells assessed as inhibition of cell proliferation incubated for 72 hrs by MTT assay; assay type: functional, cell-based; details: HL-60, 72 h
HeLa [3] = assay: Cytotoxicity against human HeLa cells assessed as inhibition of cell proliferation incubated for 72 hrs by MTT assay; assay type: functional, cell-based
SF-268 = assay: Antiproliferative activity against human SF-268 cells assessed as inhibition of cell growth incubated for 48 hrs by MTT assay; assay type: functional, cell-based
MCF7 = assay: Antiproliferative activity against human MCF7 cells assessed as inhibition of cell growth incubated for 48 hrs by MTT assay; assay type: functional, cell-based
AGS = assay: Antiproliferative activity against human AGS cells assessed as inhibition of cell growth incubated for 48 hrs by MTT assay; assay type: functional, cell-based
NCI-H460 = assay: Antiproliferative activity against human NCI-H460 cells assessed as inhibition of cell growth incubated for 48 hrs by MTT assay; assay type: functional, cell-based
HCT-116 [4] = assay: Antiproliferative activity against human HCT-116 cells assessed as inhibition of cell growth incubated for 48 hrs by MTT assay; assay type: functional, cell-based
HeLa S3 [5] = assay: Cytotoxicity against human HeLa S3 cells assessed as inhibition of cell proliferation incubated for 72 hrs by MTT assay; assay type: functional, cell-based; details: HeLa S3, 72 h
MDA-MB-231 = assay: Cytotoxicity against human MDA-MB-231 cells assessed as reduction in cell viability incubated for 48 hrs by MTS assay; assay type: functional, cell-based
JIMT-1 = assay: Cytotoxicity against human JIMT-1 cells assessed as reduction in cell viability incubated for 48 hrs by MTS assay; assay type: functional, cell-based
DU-145 = assay: Cytotoxicity against human DU-145 cells assessed as reduction in cell viability incubated for 48 hrs by MTS assay; assay type: functional, cell-based
BT-474 = assay: Cytotoxicity against human BT-474 cells assessed as reduction in cell viability incubated for 48 hrs by MTS assay; assay type: functional, cell-based
MIA PaCa-2 [6] = assay: Cytotoxicity against human MIA PaCa-2 cells assessed as reduction in cell viability incubated for 48 hrs by MTS assay; assay type: functional, cell-based
PC-3 = assay: Cytotoxicity against human PC-3 cells assessed as reduction in cell viability incubated for 48 hrs by MTS assay; assay type: functional, cell-based
HeLa [7] = assay: Antiproliferative activity against human HeLa cells assessed as inhibition of cell growth incubated for 24 hrs by MTT assay; assay type: functional, cell-based
[8] = target: RAC-alpha serine/threonine-protein kinase (Homo sapiens, UniProt P31749); assay: Inhibition of AKT1 (unknown origin) in presence of ATP by ELISA
HeLa S3 [9] = assay: Cytotoxicity against human HeLa S3 cells; assay type: functional, cell-based
P388 = assay: Cytotoxicity against mouse P388 cells; assay type: functional, cell-based; details: p388
NCI-H69 = assay: Cytotoxicity against human NCI-H69 cells; assay type: functional, cell-based
B16 = assay: Cytotoxicity against mouse B16 cells; assay type: functional, cell-based; details: b16
P388/ADM = assay: Cytotoxicity against mouse P388/ADM cells; assay type: functional, cell-based

Chain of RAC-alpha serine/threonine-protein kinase (P31749 whole entry): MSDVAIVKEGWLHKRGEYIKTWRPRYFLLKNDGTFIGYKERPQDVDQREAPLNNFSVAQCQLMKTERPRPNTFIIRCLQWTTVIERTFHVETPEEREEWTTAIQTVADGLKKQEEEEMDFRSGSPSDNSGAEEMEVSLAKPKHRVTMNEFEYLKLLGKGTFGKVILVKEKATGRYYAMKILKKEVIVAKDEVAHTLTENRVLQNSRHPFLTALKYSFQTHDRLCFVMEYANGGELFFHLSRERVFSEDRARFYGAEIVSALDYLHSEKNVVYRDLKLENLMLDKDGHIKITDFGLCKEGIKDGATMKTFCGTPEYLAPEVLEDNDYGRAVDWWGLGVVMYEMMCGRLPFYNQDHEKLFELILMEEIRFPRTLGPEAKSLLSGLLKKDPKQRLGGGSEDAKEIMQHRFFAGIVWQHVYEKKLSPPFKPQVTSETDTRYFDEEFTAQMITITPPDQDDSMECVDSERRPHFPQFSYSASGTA

Structure (SMILES): CO[C@@H]1/C=C(\C)C[C@H](/C=C/C#C[C@H]2C[C@@H]2Cl)OC(=O)[C@@H](C)[C@]2(O)C[C@H](O[C@@H]3O[C@@H](C)[C@H](O)[C@@](C)(O)[C@H]3O[C@@H]3O[C@@H](C)[C@H](O)[C@@](C)(O)[C@H]3OC)[C@@H](C)[C@@H](O2)[C@@H]1C
IC50 (HCT-116 [1]): 10.2 µM

Structure (SMILES): COC(C)(C)/C=C/C/C(C)=C/CC/C(C)=C/Cc1cc(O)c(C)cc1O[C@@H]1O[C@H](COC(C)=O)[C@H](OC(C)=O)[C@H](OC(C)=O)[C@H]1O
IC50 (K562): 9.4 µg/mL (≈ 14.5 µM)

Structure (SMILES): CCCCCCCC/C=C\CCCCCCCCNC(=O)[C@H]1[C@@H]2OC(C)(C)O[C@@H]2[C@](C)(CO)N1CCCC
IC50 (PK9): 17 µM
IC50 (MIA PaCa-2 [2]): 3.6 µM

Structure (SMILES): C/C=C/C/C(C)=C\[C@H]1C/C=C/C=C/C[C@H](C)/C=C(\C)[C@@H](OC)CCC[C@@H](O[C@@H]2O[C@H](CO)[C@@H](O)[C@H](OC)[C@H]2O)CC(=O)O1
IC50 (HL-60): 0.071 µM
IC50 (HeLa [3]): 0.19 µM

IC50 (MCF7): 0.039 µg/mL (≈ 0.0518 µM)
IC50 (AGS): 0.039 µg/mL (≈ 0.0518 µM)
IC50 (NCI-H460): 0.039 µg/mL (≈ 0.0518 µM)
IC50 (HCT-116 [4]): 0.039 µg/mL (≈ 0.0518 µM)
Structure (SMILES): CC/C=C\C/C=C\C/C=C\CCCCCCCC(=O)OCC(CO[C@@H]1O[C@H](CO)[C@H](O)[C@H](O)[C@H]1O)OC(=O)CCCCCCCCCCCCCCC (some centres not stated)
IC50 (SF-268): 0.039 µg/mL (≈ 0.0518 µM)

Structure (SMILES): C=C1[C@@H](OC)C/C=C/[C@@H](O[C@@H]2O[C@H](CO)[C@@H](O)[C@H](OC)[C@H]2O)CC(=O)O[C@@H](/C=C(/C)C/C=C/C)C/C=C/C=C/C[C@H](C)[C@@H]1OO
IC50 (HeLa S3 [5]): > 10 µM

IC50 (MCF7): 0.039 µg/mL (≈ 0.0503 µM)
IC50 (AGS): 0.039 µg/mL (≈ 0.0503 µM)
IC50 (NCI-H460): 0.039 µg/mL (≈ 0.0503 µM)
IC50 (HCT-116 [4]): 0.039 µg/mL (≈ 0.0503 µM)
Structure (SMILES): CC/C=C\C/C=C\C/C=C\CCCCCCCC(=O)OCC(CO[C@@H]1O[C@H](CO)[C@H](O)[C@H](O)[C@H]1O)OC(=O)CCCCCCC/C=C\C/C=C\C/C=C\CC (some centres not stated)
IC50 (SF-268): 0.039 µg/mL (≈ 0.0503 µM)

Structure (SMILES): CCCCCCCCCCCCCCCCOC[C@H](CO[C@H]1O[C@H](CN)[C@@H](O)[C@H](O)[C@H]1NC(=O)CCCc1ccc(N(CCCl)CCCl)cc1)OC
IC50 (MDA-MB-231; MDA-MB-231, 48 h): 6 µM
IC50 (JIMT-1; JIMT-1, 48 h): 6 µM
IC50 (DU-145; DU-145, 48 h): 6 µM
IC50 (BT-474; BT-474, 48 h): 6 µM
IC50 (MIA PaCa-2 [6]; MIA PaCa-2, 48 h): 6 µM
IC50 (PC-3; PC-3, 48 h): 6 µM

Structure (SMILES): C/C=C/C/C(C)=C\[C@H]1C/C=C/C=C/C[C@H](C)/C=C(\C)[C@@H](OC)C[C@@H](O)C[C@@H](O[C@@H]2O[C@H](CO)[C@@H](O)[C@H](OC)[C@H]2O)CC(=O)O1
IC50 (HL-60): 0.04 µM
IC50 (HeLa S3 [5]): 6.5 µM

Structure (SMILES): C/C=C/C/C(C)=C/[C@H]1C/C=C/C=C/C[C@H](C)/C=C(\C)[C@@H](OC)C/C=C/[C@@H](O[C@@H]2O[C@H](CO)[C@@H](O)[C@H](OC)[C@H]2O)CC(=O)O1
IC50 (HL-60): 0.66 µM
IC50 (HeLa [3]): 3.1 µM

Structure (SMILES): C/C=C/C/C(C)=C\[C@H]1C/C=C/C=C/C[C@H](C)/C=C(\C)[C@@H](OC)C[C@@H](O)C[C@@H](O)CC(=O)O1
IC50 (HL-60): 0.012 µM
IC50 (HeLa S3 [5]): 0.039 µM

IC50 (HeLa [7]): > 100 µg/mL
Structure (SMILES): CCCCCCCCCCCCCCCCCCCCCCCCCCCC(=O)OC[C@H](CC[C@@H]1O[C@H](CO)[C@H](O)[C@H](O)[C@H]1O)OC(=O)CCCCCCCCCCCCCCCCCCCCCCCCCCC

IC50 [8]: > 100 µM
Structure (SMILES): CCCCCCCCCOC(=O)O[C@H](COC(=O)CCCCCCCCC)COP(=O)(O)O[C@@H]1[C@H](O)[C@H](OP(=O)(O)O)[C@@H](O)[C@H](O)[C@H]1O

Structure (SMILES): C/C=C(\C)C(O[C@@H]1O[C@H](CO)[C@@H](O)[C@H](O)[C@H]1O)C(C)/C=C(C)/C=C/CC(C)(O)/C=C/c1nc(OC)c(OC)c(O)c1C (stereo in doubt; 283)
IC50 (HeLa S3 [9]; Homo sapiens, HeLa S3, read-out: IC50): 0.62 µg/mL (≈ 1.04 µM)
IC50 (P388): 0.58 µg/mL (≈ 0.977 µM)
IC50 (NCI-H69; Homo sapiens, NCI-H69, read-out: IC50): 0.47 µg/mL (≈ 0.792 µM)
IC50 (B16): 0.32 µg/mL (≈ 0.539 µM)
IC50 (P388/ADM; Mus musculus, P388/ADM, read-out: IC50): 4.3 µg/mL (≈ 7.24 µM)

Structure (SMILES): C/C=C(\C)C(O[C@@H]1O[C@H](CO)[C@@H](O)[C@H](O)[C@H]1O)C(C)/C=C(C)/C=C/CC(C)(O)/C=C/c1nc(OC)c(OC)c(O)c1C (stereo in doubt; 284)
IC50 (HeLa S3 [9]; hela s3): 0.98 µg/mL (≈ 1.65 µM)
IC50 (P388): 2.5 µg/mL (≈ 4.21 µM)
IC50 (NCI-H69; nci-h69): 0.83 µg/mL (≈ 1.4 µM)
IC50 (B16): 0.67 µg/mL (≈ 1.13 µM)
IC50 (P388/ADM; p388/adm): 4.2 µg/mL (≈ 7.07 µM)

Structure (SMILES): O=C(O)CCCc1ccc(N(CCCl)CCCl)cc1 [CHLORAMBUCIL]
CC50 (MDA-MB-231; MDA-MB-231, time 48 hrs): > 150 µM
CC50 (JIMT-1; JIMT-1, time 48 hrs): > 150 µM
CC50 (DU-145; DU-145, time 48 hrs): > 150 µM
CC50 (BT-474; BT-474, time 48 hrs): > 150 µM
CC50 (MIA PaCa-2 [6]; MIA PaCa-2, time 48 hrs): > 150 µM
CC50 (PC-3; PC-3, time 48 hrs): > 150 µM
